Experimental findings from ChEMBL document CHEMBL1201862, “PubChem BioAssay data set” (2004) are described below.

What all share (experiment): inhibition of tumour cell growth, NCI panel, 48 h
In test [1] the test system is CCRF-CEM.
Test [2] has as its system COLO 205.
Test [3] concerns HCT-15.
Test [4] deals with HL-60.
For test [5], the system named is HOP-92.
The subject of test [6] is HT-29.
Test [7] has as its system IGROV-1.
Test [8] concerns KM-20L2.
In test [9] the test system is LOX IMVI.
For test [10], the system named is Malme-3M.
In test [11] the test system is NCI-H226.
Test [12] has as its system NCI-H522.
For test [13], the system named is OVCAR-5.
Test [14] concerns SK-MEL-2.
Test [15] has as its system SNB-75.
Test [16] relates to SNB-78.
Test [17] has as its system U-251.

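These data come from cells grown in 96-well plates and exposed to compound for 48 hours at five concentrations. GI50 marks 50% less growth.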 Calls of active or inactive are those of the source. No stated cut-off is given here; in the data, active = GI50 up to about 1.1 µM and inactive = higher. Bounds are passed on as bounds.

Regarding `Cc1ccc(/N=N/C2S/C(=C(\C#N)c3nc4ccccc4[nH]3)N(c3ccccc3)C2=O)cc1` (centres undefined), the GI50 in test [1] was > 100 µM (inactive); in [2], > 100 µM (inactive); in test [3] it was over 100 µM; in test [4] it was > 100 µM (inactive); in test [5], 37.3 µM (inactive); in [6], > 100 µM (inactive). In addition, the GI50 in test [7] was 29.6 µM (inactive); in test [8], > 100 µM (inactive); in [9], 19.9 µM (inactive); in test [10], > 100 µM (inactive); in test [11] it was > 100 µM (inactive); in [12] it was > 100 µM (inactive). Further, the GI50 in test [13] was 85.1 µM (inactive); in test [14], > 100 µM (inactive); in test [15] it was 29.2 µM (inactive); in test [16] it was > 100 µM (inactive); in test [17], 57.9 µM (inactive).
Take `CN1C(c2ccccc2)CC(O)CC1c1ccccc1` (centres undefined): the GI50 is > 100 µM (inactive) in test [1]; > 100 µM (inactive) in [2]; over 100 µM in test [3]; > 100 µM (inactive) in [4]; > 100 µM (inactive) in test [5]; > 100 µM (inactive) in test [6]. Moreover, the GI50 in test [7], in [8], in [9], in test [10], in test [11] and in test [12] was > 100 µM (inactive) in each case. Further, the GI50 in test [13], in [14], in test [15], in test [16] and in test [17] was > 100 µM (inactive) in each case.
Turning to `Cc1ccc(NC(=O)CC2C(=O)Nc3ccccc3S2(=O)=O)cc1C` (centres undefined), the GI50 is > 100 µM (inactive) in test [1]; over 100 µM in test [3]; > 100 µM (inactive) in [4]; > 100 µM (inactive) in [5]; > 100 µM (inactive) in [6]; > 100 µM (inactive) in [7]. Further, the GI50 in test [8], in [9], in test [10], in [11], in test [12] and in test [13] was > 100 µM (inactive) in each case. Further, the GI50 in test [14], in test [15], in test [16] and in test [17] was > 100 µM (inactive) each time.
`C=CC1(CC)/C(=N\O)C(CC)(CC)C(=O)N1O` (centres undefined): the GI50 in [1] is > 100 µM (inactive); in test [2], > 100 µM (inactive); in test [3], over 100 µM; in test [4], > 100 µM (inactive); in [5] it was 93.8 µM (inactive); in test [6], > 100 µM (inactive). Moreover, the GI50 in test [7], in test [8], in test [9], in test [10], in test [11] and in [12] was > 100 µM (inactive) in each case. For the same molecule, the GI50 in test [13], in [14], in test [15], in [16] and in [17] was > 100 µM (inactive) in each case.
Turning to `CN(C)/C=N\c1cc[nH]c(=O)n1`, the GI50 in test [1] was > 100 µM (inactive); in test [2] it was > 100 µM (inactive); in test [3] it was over 100 µM; in [4] it was > 100 µM (inactive); in test [5], > 100 µM (inactive); in test [6] it was > 100 µM (inactive). Besides, the GI50 in [7], in [8], in [9], in [10], in test [11] and in test [12] was > 100 µM (inactive) each time. Also, the GI50 in test [13], in test [14], in test [15], in test [16] and in test [17] was > 100 µM (inactive) each time.
